Molecular target: T1, human P2X2 receptors (Homo sapiens, UniProt Q9UBL9)
T1 construct: expressed in transfected cells
T1 sequence (Q9UBL9 1-404 isoform Q9UBL9-2): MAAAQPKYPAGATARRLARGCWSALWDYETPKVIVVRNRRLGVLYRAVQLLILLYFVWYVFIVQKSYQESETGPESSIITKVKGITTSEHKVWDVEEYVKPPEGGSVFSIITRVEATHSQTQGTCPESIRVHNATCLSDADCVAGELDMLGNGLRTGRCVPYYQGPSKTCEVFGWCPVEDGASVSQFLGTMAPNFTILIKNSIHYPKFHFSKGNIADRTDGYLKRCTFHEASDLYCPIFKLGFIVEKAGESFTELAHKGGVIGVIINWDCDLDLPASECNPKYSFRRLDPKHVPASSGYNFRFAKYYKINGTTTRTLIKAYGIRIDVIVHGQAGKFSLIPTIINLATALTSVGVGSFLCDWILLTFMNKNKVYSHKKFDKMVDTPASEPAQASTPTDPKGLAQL
Assay: Confocal microscopy binding of fluorescent ATP derivatives to HEK293 cells expressing hP2X2
Details: for Binding to receptor: hP2X2, confocal binding signal
Protocol: For the detection of ligand binding, the cells were incubated with the fluorescent ATP derivatives in chambered coverslips or 96-well plates with cover-slip bottoms. The surface was coated with 0.1 mg/mL of poly-L-lysine for 12 h and washed twice with PBS before seeding the cells at […] density. The cells were suspended 24 h after induction and allowed to settle for two hours before being utilised for the measurements. The solutions were freshly prepared before each experiment. The bulk solution was counter-stained with the red fluorescence dye Dy647. Each confocal voxel covering the cell membrane contained both the signal from the bound ligand and the signal from ligands in the bulk solution. This additional signal, e.g., the fraction of the bulk solution inside a voxel, varied from pixel to pixel and can hardly be described theoretically.
Figure 2 Confocal microscopy was used to characterise the binding of fluorescently tagged ligands to HEK 293 cells stably expressing human P2X2 receptors. (a) Structure of fATP and α,βMe-fATP. The dye DY547P1 is attached to the 2-position of the purine ring through an aminohexylthio-linker. (b) Representative confocal images for quantification of fATP and α,βMe-fATP binding, including approximately 200 stably transfected cells/mm^2. Specific binding is proven by the lack of signal in non-induced cells and in cells expressing P2X2 receptors in the presence of 100 µM ATP. […]
The concentration–binding relationships were normalised to their maximum relative fluorescence intensities at a saturating fATP or α,βMe-fATP concentration.
Measuring the binding of ligands to receptors is challenging. […] Ligand binding was measured in stably transfected HEK293 cells expressing P2X receptors, attached to the glass bottom of the experimental chamber (Figure 2b). Quantifying ligand binding by automated fluorescence methods remains demanding at low expression levels and high ligand concentrations when the background signal becomes significant. To address this issue, we used the red fluorescence dye Dy647 at a concentration of 1 µM [27, 33, 34]. […]

Structure (SMILES)	Binding to receptor	Fraction of ligand remaining bound at high Mg2+ (hP2X2, fATP binding after application of 10 mM Mg2+)
COCC[N+]1=C(C=CC=C2N(CCCCCC(=O)NCCCCCCSc3nc(N)c4ncn(C5OC(COP(=O)(O)CP(=O)(O)OP(=O)(O)O)C(O)C5O)c4n3)c3ccc(S(=O)(=O)O)cc3C2(C)C)C(C)(C)c2cc(S(=O)(=O)[O-])ccc21 (stereo not drawn) [α,βMe-fATP, 2-[DY-547P1]-AHT-α,βMe-ATP]	robust binding affinity	
COCC[N+]1=C(C=CC=C2N(CCCCCC(=O)NCCCCCCSc3nc(N)c4ncn(C5OC(COP(=O)(O)OP(=O)(O)OP(=O)(O)O)C(O)C5O)c4n3)c3ccc(S(=O)(=O)O)cc3C2(C)C)C(C)(C)c2cc(S(=O)(=O)[O-])ccc21 (stereo not drawn) [fATP, 2-[DY-547P1]-AHT-ATP]	robust binding affinity	~ 40%

Source: PMC11352409, “Subtype-Specific Ligand Binding and Activation Gating in Homomeric and Heteromeric P2X Receptors” (Biomolecules, 2024)
